Series [1] concerns Trichomonas vaginalis. In words: Minimum inhibitory concentration against Trichomonas vaginalis (own test). It counts as cell-based. The conditions noted are these: comparison with metronidazole.
For series [2], the system named is trichomonads. The settings on record: Lancini et al.; cited from earlier work.
Series [3] concerns trichomonads. The conditions noted are these: Grunberg and Titsworth; cited from earlier work.
For series [4] the following is noted: Grunberg and Titsworth; cited from earlier work.

These results are taken from patent US3966732A, “Nitroimidazolyl pyrimidines” (Schering Aktiengesellschaft, priority 1972, dated 1976).

One may read the MIC as the smallest concentration in the dilution series that meets the test's criterion for growth inhibition.

Each structure is given as a SMILES string. Values after ≈ are worked out from the molar mass of the structure shown.

As to `Cc1ncc([N+](=O)[O-])n1CCO` [Metronidazole, 5-nitro-2-methyl-1-(2-hydroxyethyl)-imidazole], the minimal inhibitory concentration (MIC) in series [1] is 1.6 µg/mL (≈ 9.35 µM).

As to `Cc1cc(C)nc(-c2ncc([N+](=O)[O-])n2C)n1` [4,6-Dimethyl-2-(5-nitro-1-methyl-2-imidazolyl)-pyrimidine], inhibition of growth in series [1] (MIC) required 0.4 µg/mL (≈ 1.72 µM).

Turning to `Cc1nc(-c2ncc([N+](=O)[O-])n2C)nc2c1CCc1ccccc1-2` [2-(5-Nitro-1-methyl-2-imidazolyl)-4-methyl-5,6-dihydrobenzo[h]quinazoline], in series [1], the minimum inhibitory concentration (MIC) was determined as 0.1 µg/mL (≈ 0.311 µM).

On to `Cn1c([N+](=O)[O-])cnc1-c1nc(-c2cccs2)cc(C(F)(F)F)n1` [4-Trifluoromethyl-2-(5-nitro-1-methyl-2-imidazolyl)-6-(2-thienyl)-pyrimidin], for which inhibition of growth in series [1] (MIC) required 0.2 µg/mL (≈ 0.563 µM).

For `O=[N+]([O-])c1ncc[nH]1` [azomycin, 2-nitroimidazole], the “effectiveness in vitro compared with metronidazole” value in series [2] was “no more effective in vitro than metronidazole”. In addition, the “ED50 value (in words, versus metronidazole)” value in series [3] is “considerably less favorable”. Besides, the “LD50 value (in words, versus metronidazole)” value in series [4] was “considerably less favorable”.

Turning to `Cc1cc(-c2ccccc2)nc(-c2ncc([N+](=O)[O-])n2C)n1` [4-Methyl-6-phenyl-2-(5-nitro-1-methyl-2-imidazolyl)pyrimidine], 0.2 µg/mL (≈ 0.677 µM) was the least that counted as inhibitory in series [1] (MIC).
